Measured values as given in US20130252988A1, “COMPOSITIONS AND METHODS FOR TREATING MYELOFIBROSIS” (TARGEGEN, INC., priority 2010, published 2013).
Entries after “also recorded” stand apart in the source; their conditions may differ. Where a name gives a salt, the structure may show the parent alone. Read-outs that look alike come from different tables or passages of the source.

Tests used:
Type in all cases: in vivo, human
[1] = Plasma pharmacokinetics of TG101348, non-compartmental analysis; conditions: for AUC(0-t) / Cmax / half-life / Tmax: human, plasma; for Tmax: median
Protocol: The concentration-time curves of TG101348 in plasma were evaluated by a non-compartmental analysis (with the use of WinNonlin® software, version 5.2).

[2] = test system: subjects with myelofibrosis (palpable splenomegaly); assay: Palpable spleen size / splenomegaly response (IWG-MRT criteria); set-up: Clinical improvement (IWG response), subjects by 20 weeks: reference not given here; conditions: for Subjects with =50% decrease in palpable spleen size persistent for at least 8 weeks (Clinical Improvement, CI) / Subjects with a minimum 25% decrease in palpable spleen size: by cycle 6; for Subjects with a minimum 25% decrease in palpable spleen size: intent-to-treat; for Subjects with spleen response (CI): by cycle 12
Protocol: (§1) Responses were measured every 4 weeks per International Working Group for MPN Research and Treatment (IWG-MRT) criteria (Tefferi A et al., Blood 108:1497-1503, 2006). Assessment of bone marrow histology was performed at baseline and every 24 weeks of therapy. Changes in JAK2V617F allele burden in the granulocyte fraction of peripheral blood were measured as previously described (Kittur J et al., Cancer 109:2279-2284, 2007); the assessments were at baseline and every 4 weeks during the first 6 cycles, and every 6th cycle of therapy in the extension study.

JAK2V617F allele burden = JAK2V617F allele burden in the granulocyte fraction of peripheral blood
Protocol: as §1

[3] = oral, 30 mg/day (n = 3), multiple daily doses, Cycle 1, Day 28, mean
[4] = oral, 60 mg/day (n = 3), multiple daily doses, Cycle 1, Day 28, mean
[5] = oral, 120 mg/day (n = 3), multiple daily doses, Cycle 1, Day 28, mean
[6] = oral, 240 mg/day (n = 3), multiple daily doses, Cycle 1, Day 28, mean
[7] = oral, 360 mg/day (n = 3), multiple daily doses, Cycle 1, Day 28, mean
[8] = oral, 520 mg/day (n = 3), multiple daily doses, Cycle 1, Day 28, mean
[9] = oral, 680 mg/day (n = 27), multiple daily doses, Cycle 1, Day 28, mean
[10] = oral, 800 mg/day (n = 5), multiple daily doses, Cycle 1, Day 28, mean
[11] = over a 27-fold increase in dose
[12] = 680 mg/day starting dose (N=37)
[13] = MTD cohort, subjects who completed 6 cycles

In the case of `Cc1cnc(Nc2ccc(OCCN3CCCC3)cc2)nc1Nc1cccc(S(=O)(=O)NC(C)(C)C)c1` [TG101348, N-tert-butyl-3-[(5-methyl-2-{[4-(2-pyrrolidin-1-ylethoxy)phenyl]amino}pyrimidin-4-yl)amino]benzenesulfonamide dihydrochloride monohydrate], the “Dose proportionality of plasma PK parameters (Cmax and AUC0-t)” value ([1]; 30 to 800 mg/day) is reported as “greater than dose-proportional increases”, the AUC(0-t) [1, 3] is reported as 807 ng·h/mL and the Cmax [1, 3] is reported as 81.8 ng/mL. The half-life ([1]; oral, 30 mg/day (n = 3), multiple daily doses, Cycle 1, Day 28, mean, read-out: T1/2 (terminal half-life) (converted)) was 20.9 h, the Tmax ([1]; oral, 30 mg/day (n = 3), multiple daily doses, Cycle 1, Day 28) was 2 h and the AUC(0-t) [1, 4] was 2430 ng·h/mL. For the same compound, the Cmax [1, 4] was 257 ng/mL, the half-life ([1]; oral, 60 mg/day (n = 3), multiple daily doses, Cycle 1, Day 28, mean, read-out: T1/2 (terminal half-life) (converted)) was 15.7 h and the Tmax ([1]; oral, 60 mg/day (n = 3), multiple daily doses, Cycle 1, Day 28) was 1 h. The AUC(0-t) [1, 5] was 7650 ng·h/mL, the Cmax [1, 5] was 557 ng/mL and the half-life ([1]; oral, 120 mg/day (n = 3), multiple daily doses, Cycle 1, Day 28, mean, read-out: T1/2 (terminal half-life) (converted)) was 24.4 h. The Tmax ([1]; oral, 120 mg/day (n = 3), multiple daily doses, Cycle 1, Day 28) was 2 h, the AUC(0-t) [1, 6] was 26200 ng·h/mL and the Cmax [1, 6] was 1800 ng/mL. It also gave a half-life ([1]; oral, 240 mg/day (n = 3), multiple daily doses, Cycle 1, Day 28, mean, read-out: T1/2 (terminal half-life) (converted)) of 20.8 h, a Tmax ([1]; oral, 240 mg/day (n = 3), multiple daily doses, Cycle 1, Day 28) of 2 h and an AUC(0-t) [1, 7] of 23900 ng·h/mL. The Cmax [1, 7] was 1720 ng/mL, the half-life ([1]; oral, 360 mg/day (n = 3), multiple daily doses, Cycle 1, Day 28, mean, read-out: T1/2 (terminal half-life) (converted)) was 21.4 h and the Tmax ([1]; oral, 360 mg/day (n = 3), multiple daily doses, Cycle 1, Day 28) was 2 h. It also gave an AUC(0-t) [1, 8] of 61700 ng·h/mL, a Cmax [1, 8] of 3890 ng/mL and a half-life ([1]; oral, 520 mg/day (n = 3), multiple daily doses, Cycle 1, Day 28, mean, read-out: T1/2 (terminal half-life) (converted)) of 20.9 h. It also gave a Tmax ([1]; oral, 520 mg/day (n = 3), multiple daily doses, Cycle 1, Day 28) of 4 h, an AUC(0-t) [1, 9] of 55100 ng·h/mL and a Cmax [1, 9] of 3060 ng/mL. For the same compound, the half-life ([1]; oral, 680 mg/day (n = 27), multiple daily doses, Cycle 1, Day 28, mean, read-out: T1/2 (terminal half-life) (converted)) was 33.7 h, the Tmax ([1]; oral, 680 mg/day (n = 27), multiple daily doses, Cycle 1, Day 28) was 4 h and the AUC(0-t) [1, 10] was 70800 ng·h/mL. The Cmax [1, 10] was 4380 ng/mL, the half-life ([1]; oral, 800 mg/day (n = 5), multiple daily doses, Cycle 1, Day 28, mean, read-out: T1/2 (terminal half-life) (converted)) was 24 h and the Tmax ([1]; oral, 800 mg/day (n = 5), multiple daily doses, Cycle 1, Day 28) was 2.25 h. For the same compound, the half-life ([1]; oral, across all doses, read-out: Terminal phase half-life at steady state) was 16 to 34 h, the “Time after dosing at which peak plasma concentration was achieved” value ([1]; oral, once daily) was 1 to 4 h and the “Increase in mean steady-state AUC0-t” value [1, 11] was ~88 fold. The “Increase in mean steady-state Cmax” value [1, 11] was “approximately 54 fold”, the “Clinical improvement (IWG response), subjects by 12 weeks” value [2, 12] was 56% and the “Clinical improvement (IWG response), subjects by 20 weeks” value [2, 12] was 100%. For the same compound, the “Subjects who achieved clinical improvement based on reduction of palpable splenomegaly (IWG response)” value [2, 12] was 49%, the “Complete response of splenomegaly” value ([2]; Example 2 conclusions) was ~30% and the “Proportion achieving =50% reduction in palpable splenomegaly” value ([2]; Example 2 conclusions) was “two-thirds”. The “Mean (standard deviation) duration of spleen response per IWG-MRT criteria” value ([2]; MTD cohort) was 288 (±76) days, the “Median time to CI” value ([2]; MTD cohort, range 41-170) was 113 days and the “Subjects in whom the spleen became non palpable” value [2, 13] was 31%. The “Subjects with =25% reduction in palpable spleen size” value [2, 13] was 90%, the “Subjects with =50% reduction in palpable spleen size” value [2, 13] was 66% and the “Subjects with JAK2V617F-negative MF who achieved CI” value ([2]; Three of 4 subjects who completed 6 cycles) was 75%. For the same compound, the “Median time to CI” value ([2]; across doses, range 41 to 171) was 141 days, the “Patients with reduction in palpable spleen size of at least 50%” value ([2]; at 3 months, 33 patients who started at =680 mg and completed at least 3 cycles, 22 patients) was 67% and the “Patients in whom the spleen became non-palpable” value ([2]; at 3 months, 33 patients who started at =680 mg, 9 patients) was 27%. The “Relapse or disease progression” value ([2]; at the time of data collection (Example 2)) was “no relapse or disease progression”, the “Subjects with =50% decrease in palpable spleen size persistent for at least 8 weeks (Clinical Improvement, CI)” value ([2]; MTD cohort) was 45% and the “Subjects with a minimum 25% decrease in palpable spleen size” value ([2]; MTD cohort) was 65%. The “Subjects with =50% decrease in palpable spleen size persistent for at least 8 weeks (Clinical Improvement, CI)” value ([2]; overall) was 39%, the “Subjects with a minimum 25% decrease in palpable spleen size” value ([2]; overall (36 subjects)) was 61% and the “Subjects with spleen response (CI)” value ([2]; MTD cohort) was 50%. For the same compound, the “Subjects with spleen response (CI)” value ([2]; overall) was 48%, the “Lowest starting dose at which CI was observed” value ([2]; in vivo) was 240 mg/day and the “Palpable spleen size after treatment” value ([2]; one subject with JAK2V617F-positive PMF, started at 680 mg/day, 9 cm before) was 0 cm. For the same compound, the “Mean (standard deviation) duration of spleen response per IWG-MRT criteria” value ([2]; overall) was 315 (±129) days, the “Onset of spleen response” value ([2]; rapid, generally seen within) was ≤ 2 cycles and the “Subjects exhibiting no change in allele burden” value (JAK2V617F allele burden; 12 cycles, 100% allele burden at baseline) was 2. For the same compound, the “Median JAK2V617F allele burden” value (JAK2V617F allele burden; 23 subjects with baseline >20% (baseline median 60%), after 6 cycles, range 4%-100%) was 31%, the “Median JAK2V617F allele burden” value (JAK2V617F allele burden; 23 subjects with baseline >20% (baseline median 60%), after 12 cycles, range 7%-100%) was 32% and the “Patients with =50% reduction in VF allele burden” value (JAK2V617F allele burden; 48 evaluable VF-positive patients (21 patients), last available follow-up) was 44%. For the same compound, the “Median decrease in granulocyte mutant allele burden” value (JAK2V617F allele burden; 48 evaluable VF-positive patients, last available follow-up) was 48%, the “Median JAK2V617F allele burden” value (JAK2V617F allele burden; all mutation-positive subjects (baseline median 20%), after 6 cycles, range 0%-100%) was 17% and the “Median JAK2V617F allele burden” value (JAK2V617F allele burden; all mutation-positive subjects (baseline median 20%), after 12 cycles, range 0%-100%) was 19%. For the same compound, the “Change in JAK2V617F allele burden versus pre-study baseline” value (JAK2V617F allele burden; all mutation-positive subjects (n=51), after 6 cycles (p=0.04) and 12 cycles (p=0.01)) was “significant decrease”, the “Subjects with =50% decrease in JAK2V617F” value (JAK2V617F allele burden; baseline >20%, 12 cycles, 7 subjects) was 39% and the “Subjects exhibiting an increase in allele burden” value (JAK2V617F allele burden; baseline >20%, 12 cycles, Three subjects (7%, 18%, and 22%)) was 17%. For the same compound, the “Median decrease in JAK2V617F allele burden” value (JAK2V617F allele burden; baseline >20%, 18 subjects who completed 12 cycles, range 29% to 82%) was 50%, the “Subjects exhibiting an increase in JAK2V617F allele burden” value (JAK2V617F allele burden; baseline >20%, after 6 cycles, 4 subjects (18%, 21%, 30%, and 58%)) was 20% and the “Subjects with =50% decrease in JAK2V617F allele burden” value (JAK2V617F allele burden; baseline >20%, after 6 cycles, 9 subjects) was 45%. For the same compound, the “Subjects exhibiting a decrease in JAK2V617F allele burden” value (JAK2V617F allele burden; baseline >20%, after 6 cycles, 16 of 20 subjects) was 80%, the “Median decrease in JAK2V617F allele burden” value (JAK2V617F allele burden; baseline >20%, after 6 cycles, 16 subjects, range 6% to 96%) was 61% and the “Patients with =50% reduction in VF allele burden” value (JAK2V617F allele burden; group who started treatment at =680 mg) was 48%. The “Change in JAK2V617F allele burden versus pre-study baseline” value (JAK2V617F allele burden; subgroup with baseline allele burden >20% (n=23), after 6 cycles (p=0.002) and 12 cycles (p=0.002), dihydrochloride monohydrate) was “significant and even more pronounced decrease; also recorded: significant decrease” and the “Subjects with decreased JAK2 V617F allele burden” value (JAK2V617F allele burden; subjects with baseline >20% (N=22), FIG. 6) was 59%.
